The record followed here is US9637483B2, “Heterocyclic compound” (TAKEDA PHARMACEUTICAL COMPANY LIMITED, priority 2013, dated 2017).

Holding throughout (assay type): biochemical
For assay [1], the target named is T1, JAK3 (Homo sapiens, UniProt P52333).
T1 construct: purchased Invitrogen
T1 sequence (P52333 1-1124): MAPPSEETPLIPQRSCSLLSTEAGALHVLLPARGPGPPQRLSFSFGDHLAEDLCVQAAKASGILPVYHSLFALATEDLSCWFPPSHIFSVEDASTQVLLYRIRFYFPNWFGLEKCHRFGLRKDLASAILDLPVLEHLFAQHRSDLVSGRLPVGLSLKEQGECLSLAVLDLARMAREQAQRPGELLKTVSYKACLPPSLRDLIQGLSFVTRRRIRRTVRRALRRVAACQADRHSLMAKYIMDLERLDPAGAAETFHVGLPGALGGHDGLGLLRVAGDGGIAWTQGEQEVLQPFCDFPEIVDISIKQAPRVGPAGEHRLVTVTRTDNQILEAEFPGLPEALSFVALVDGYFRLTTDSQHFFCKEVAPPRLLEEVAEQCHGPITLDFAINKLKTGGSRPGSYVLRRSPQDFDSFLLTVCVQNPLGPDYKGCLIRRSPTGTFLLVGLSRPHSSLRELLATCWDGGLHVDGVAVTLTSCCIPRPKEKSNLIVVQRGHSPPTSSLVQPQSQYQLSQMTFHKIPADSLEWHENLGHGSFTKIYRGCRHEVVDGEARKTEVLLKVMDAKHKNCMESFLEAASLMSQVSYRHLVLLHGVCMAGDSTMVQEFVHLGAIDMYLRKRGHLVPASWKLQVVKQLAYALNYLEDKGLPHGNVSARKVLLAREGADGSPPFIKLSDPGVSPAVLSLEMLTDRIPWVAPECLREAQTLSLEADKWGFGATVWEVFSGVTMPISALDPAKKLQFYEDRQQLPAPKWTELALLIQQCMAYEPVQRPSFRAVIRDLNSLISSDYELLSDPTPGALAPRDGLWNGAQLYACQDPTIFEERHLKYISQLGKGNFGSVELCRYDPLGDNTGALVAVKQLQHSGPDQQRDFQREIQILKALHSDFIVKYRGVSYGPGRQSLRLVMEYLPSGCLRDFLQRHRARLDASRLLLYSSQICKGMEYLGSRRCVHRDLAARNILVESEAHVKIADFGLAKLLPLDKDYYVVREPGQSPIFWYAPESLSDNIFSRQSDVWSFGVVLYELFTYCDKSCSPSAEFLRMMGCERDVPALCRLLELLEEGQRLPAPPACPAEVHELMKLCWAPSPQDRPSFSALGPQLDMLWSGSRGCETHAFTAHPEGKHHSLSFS
The assay is described as follows: JAK3 enzyme inhibition test (LANCE method). The note with it: 1 μM test compound; read-out: JAK3 enzyme inhibitory activity (%, 1 μM). As to the method:
(§1) JAK3 enzyme inhibitory activity of test compounds was measured by the LANCE method (PerkinElmer). First, a test compound diluted with assay buffer (50 mM HEPES (pH 7.5), 10 mM MgCl2, 1 mM EGTA, 2 mM DTT, 0.01% Tween20, 0.01% BSA) was added to a 384-well plate by 2 μL each. Then, a JAK3 (Invitrogen) solution and a fluorescence-labeled peptide substrate (ULight-JAK1, PerkinElmer) solution diluted with assay buffer to 12 ng/mL and 300 nM, respectively, were added by 2 μL each. Then, an enzyme reaction was started by adding 2 μL each of ATP solution prepared with assay buffer to 15 μM. After the reaction at room temperature for 1 hr, Detection Buffer (PerkinElmer) prepared to contain 20 mM EDTA, 4 nM europium-labeled anti-phosphotyrosine antibody (PerkinElmer) was added by 6 μL each. After standing at room temperature for 1 hr, fluorescence intensity (excitation wavelength 340 nm, fluorescence wavelength 665 nm, delay time 100 microseconds) was measured by a plate reader, Envision (PerkinElmer). The inhibitory activity of each compound was calculated as a relative activity value to the fluorescence intensity of a well free of enzyme as 100% inhibition.
(In general: In TR-FRET formats the signal depends on donor and acceptor labels being close together.)

The target of assay [2] is T2, TYK2 (Homo sapiens, UniProt P29597).
T2 construct: purchased Invitrogen
The assay is described as follows: TYK2 enzyme inhibition test (LANCE method). Conditions: 1 μM test compound; read-out: TYK2 enzyme inhibitory activity (%, 1 μM). The protocol:
as §1, with “TYK2” for “JAK3”, “375” for “12”, “30” for “15”

The target in assay [3] is T3, JAK1 (Homo sapiens, UniProt P23458).
T3 construct: purchased Invitrogen
The assay is described as follows: JAK1 enzyme inhibition test (LANCE method). Conditions: 1 μM test compound; for inhibition at 1 µM: read-out: JAK1 enzyme inhibitory activity (%, 1 μM). As to the method: as §1, with “JAK1” for “JAK3”, “187.5” for “12”, “150” for “15”

Assay [4] addresses T4, JAK2 (Homo sapiens, UniProt O60674).
T4 construct: purchased Invitrogen
Put plainly: JAK2 enzyme inhibition test (LANCE method). Conditions: 1 μM test compound; for inhibition at 1 µM: read-out: JAK2 enzyme inhibitory activity (%, 1 μM). As to the method: as §1, with “JAK2” for “JAK3”, “6” for “12”, “45” for “15”

Structures are written as SMILES.

T3 sequence (P23458 whole entry): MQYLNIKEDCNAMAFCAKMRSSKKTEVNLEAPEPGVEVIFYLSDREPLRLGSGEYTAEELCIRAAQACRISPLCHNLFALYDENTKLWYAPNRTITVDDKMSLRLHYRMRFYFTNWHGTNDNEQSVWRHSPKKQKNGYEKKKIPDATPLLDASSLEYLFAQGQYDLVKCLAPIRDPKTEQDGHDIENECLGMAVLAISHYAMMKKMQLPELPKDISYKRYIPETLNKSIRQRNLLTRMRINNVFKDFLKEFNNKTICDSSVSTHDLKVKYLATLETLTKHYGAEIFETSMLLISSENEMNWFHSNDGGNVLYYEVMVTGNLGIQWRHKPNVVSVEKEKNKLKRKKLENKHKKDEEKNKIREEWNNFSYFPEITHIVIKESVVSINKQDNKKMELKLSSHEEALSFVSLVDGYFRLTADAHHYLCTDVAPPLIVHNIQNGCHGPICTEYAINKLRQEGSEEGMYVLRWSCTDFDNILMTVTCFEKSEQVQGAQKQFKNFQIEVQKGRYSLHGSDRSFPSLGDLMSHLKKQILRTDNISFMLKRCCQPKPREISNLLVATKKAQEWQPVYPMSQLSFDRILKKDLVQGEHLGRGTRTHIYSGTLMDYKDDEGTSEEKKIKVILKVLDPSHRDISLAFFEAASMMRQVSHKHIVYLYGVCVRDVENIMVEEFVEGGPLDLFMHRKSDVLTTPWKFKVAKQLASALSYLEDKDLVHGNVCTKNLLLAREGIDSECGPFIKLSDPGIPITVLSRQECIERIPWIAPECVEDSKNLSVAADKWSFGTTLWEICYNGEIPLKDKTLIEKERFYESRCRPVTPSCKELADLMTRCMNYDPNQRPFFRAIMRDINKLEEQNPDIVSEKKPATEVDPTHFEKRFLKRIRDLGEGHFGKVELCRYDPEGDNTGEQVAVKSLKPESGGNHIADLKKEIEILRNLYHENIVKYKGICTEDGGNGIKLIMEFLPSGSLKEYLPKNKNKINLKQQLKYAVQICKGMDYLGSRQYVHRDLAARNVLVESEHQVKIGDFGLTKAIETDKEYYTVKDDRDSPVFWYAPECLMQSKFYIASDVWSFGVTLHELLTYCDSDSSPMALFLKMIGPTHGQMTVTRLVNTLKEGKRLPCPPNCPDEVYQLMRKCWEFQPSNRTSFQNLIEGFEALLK
T4 sequence (O60674 whole entry): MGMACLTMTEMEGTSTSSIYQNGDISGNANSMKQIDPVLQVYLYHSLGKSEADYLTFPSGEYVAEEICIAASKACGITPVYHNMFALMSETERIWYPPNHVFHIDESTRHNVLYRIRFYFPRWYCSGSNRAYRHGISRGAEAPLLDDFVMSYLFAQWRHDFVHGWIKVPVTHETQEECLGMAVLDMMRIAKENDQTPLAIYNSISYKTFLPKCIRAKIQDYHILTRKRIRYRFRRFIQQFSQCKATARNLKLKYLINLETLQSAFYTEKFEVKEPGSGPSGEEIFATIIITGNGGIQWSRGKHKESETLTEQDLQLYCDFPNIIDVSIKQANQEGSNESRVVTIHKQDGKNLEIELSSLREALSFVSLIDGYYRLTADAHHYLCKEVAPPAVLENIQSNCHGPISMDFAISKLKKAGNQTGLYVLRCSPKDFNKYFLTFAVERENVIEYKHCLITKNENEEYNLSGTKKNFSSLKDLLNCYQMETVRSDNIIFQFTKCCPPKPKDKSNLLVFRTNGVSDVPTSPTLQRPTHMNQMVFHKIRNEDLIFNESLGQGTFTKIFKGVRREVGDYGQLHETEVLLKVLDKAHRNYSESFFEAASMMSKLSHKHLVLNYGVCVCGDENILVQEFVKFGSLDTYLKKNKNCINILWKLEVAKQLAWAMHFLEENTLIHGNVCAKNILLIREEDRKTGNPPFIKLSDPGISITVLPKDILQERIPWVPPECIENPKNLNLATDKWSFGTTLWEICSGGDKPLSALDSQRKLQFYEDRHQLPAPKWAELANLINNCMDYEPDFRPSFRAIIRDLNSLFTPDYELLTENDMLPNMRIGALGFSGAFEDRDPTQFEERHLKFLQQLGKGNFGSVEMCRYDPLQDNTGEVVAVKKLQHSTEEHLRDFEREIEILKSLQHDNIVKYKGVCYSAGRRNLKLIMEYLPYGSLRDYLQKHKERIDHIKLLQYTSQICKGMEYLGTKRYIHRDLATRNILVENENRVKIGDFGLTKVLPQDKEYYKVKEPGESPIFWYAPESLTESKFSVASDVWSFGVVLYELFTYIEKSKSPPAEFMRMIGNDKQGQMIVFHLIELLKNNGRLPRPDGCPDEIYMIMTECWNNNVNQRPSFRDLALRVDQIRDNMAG
T2 sequence (P29597 whole entry): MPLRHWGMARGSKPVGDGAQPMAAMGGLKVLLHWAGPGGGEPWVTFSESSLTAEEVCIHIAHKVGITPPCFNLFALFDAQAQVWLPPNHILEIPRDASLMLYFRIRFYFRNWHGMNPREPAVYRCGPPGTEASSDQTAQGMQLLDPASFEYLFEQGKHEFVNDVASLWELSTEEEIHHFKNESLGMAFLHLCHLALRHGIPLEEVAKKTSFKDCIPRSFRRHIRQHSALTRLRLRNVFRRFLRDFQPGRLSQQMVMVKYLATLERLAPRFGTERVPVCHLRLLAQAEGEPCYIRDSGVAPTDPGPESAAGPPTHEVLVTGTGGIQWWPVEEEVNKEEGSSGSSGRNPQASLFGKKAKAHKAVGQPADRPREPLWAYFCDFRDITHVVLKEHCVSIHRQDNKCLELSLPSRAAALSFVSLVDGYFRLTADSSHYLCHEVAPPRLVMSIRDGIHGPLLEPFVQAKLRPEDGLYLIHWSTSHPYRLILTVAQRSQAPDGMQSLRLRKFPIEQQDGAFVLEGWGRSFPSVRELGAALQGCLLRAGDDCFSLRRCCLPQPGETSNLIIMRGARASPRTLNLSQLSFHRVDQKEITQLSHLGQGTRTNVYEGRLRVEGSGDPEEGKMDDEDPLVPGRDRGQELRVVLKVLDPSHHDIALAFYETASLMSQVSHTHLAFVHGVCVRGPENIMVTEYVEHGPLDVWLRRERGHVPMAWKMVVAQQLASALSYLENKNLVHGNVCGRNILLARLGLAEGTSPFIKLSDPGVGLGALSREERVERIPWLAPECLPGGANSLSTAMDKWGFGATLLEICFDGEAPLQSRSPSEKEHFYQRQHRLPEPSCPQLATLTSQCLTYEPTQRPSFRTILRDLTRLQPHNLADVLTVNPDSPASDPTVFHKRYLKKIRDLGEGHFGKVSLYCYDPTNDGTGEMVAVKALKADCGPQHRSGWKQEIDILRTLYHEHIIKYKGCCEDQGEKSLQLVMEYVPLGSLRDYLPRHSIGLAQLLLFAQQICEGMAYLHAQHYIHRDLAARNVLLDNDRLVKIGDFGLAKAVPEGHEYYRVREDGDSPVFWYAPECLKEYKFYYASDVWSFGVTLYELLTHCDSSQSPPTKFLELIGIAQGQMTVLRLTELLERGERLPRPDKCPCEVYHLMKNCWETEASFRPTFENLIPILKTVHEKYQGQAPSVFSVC

Take `CC(C)[C@H](C)n1cc(-c2cc(N3CCN(C)CC3)n(C)n2)c2[nH]nc(N)c2c1=O` [Example 10, 3-amino-5-((2S)-3-methylbutan-2-yl)-7-(1-methyl-5-(4-methylpiperazin-1-yl)-1H-pyrazol-3-yl)-1,5-dihydro-4H-pyrazolo[4,3-c]pyridin-4-one]: the inhibition at 1 µM in assay [1] was 99%; in assay [2] it was 99%; in assay [3], 96%; in assay [4], 98%.
Take `CC(C)[C@H](C)n1cc(-c2cc(CN3CCCC3)n(C)n2)c2[nH]nc(N)c2c1=O` [Example 44, 3-amino-5-((2S)-3-methylbutan-2-yl)-7-(1-methyl-5-(pyrrolidin-1-ylmethyl)-1H-pyrazol-3-yl)-1,5-dihydro-4H-pyrazolo[4,3-c]pyridin-4-one]: the inhibition at 1 µM stood at 99% in assay [1], 101% in assay [2], 90% in assay [3] and 96% in assay [4].
Regarding `CC(C)C(C#N)n1cc(-c2cc(N3CCOCC3)n(C)n2)c2[nH]nc(N)c2c1=O` (centres unmarked) [Example 113, 2-(3-amino-7-(1-methyl-5-(morpholin-4-yl)-1H-pyrazol-3-yl)-4-oxo-1,4-dihydro-5H-pyrazolo[4,3-c]pyridin-5-yl)-3-methylbutanenitrile], the inhibition at 1 µM in assay [1] and in assay [2] was 99% throughout. Further, in assay [3] (1 µM), the “JAK1 enzyme inhibitory activity (%, 1 μM)” value was 97%. Besides, the “JAK2 enzyme inhibitory activity (%, 1 μM)” value in assay [4] (1 µM) was found to be 98%.
In the case of `CC(C)[C@H](C)n1cc(-c2cc(N3CCC4(CC3)COC4)n(C)n2)c2[nH]nc(N)c2c1=O` [Example 34, 3-amino-5-((2S)-3-methylbutan-2-yl)-7-(1-methyl-5-(2-oxa-7-azaspiro[3.5]non-7-yl)-1H-pyrazol-3-yl)-1,5-dihydro-4H-pyrazolo[4,3-c]pyridin-4-one], the inhibition at 1 µM in assay [1] came to 100%; in assay [2], 100%; in assay [3], 97%; in assay [4], 99%.
With `COC[C@H]1CCCN1c1cc(-c2cn(C(C3CC3)C3CC3)c(=O)c3c(N)n[nH]c23)nn1C` [Example 159, 3-amino-5-(dicyclopropylmethyl)-7-(5-((2R)-2-(methoxymethyl)pyrrolidin-1-yl)-1-methyl-1H-pyrazol-3-yl)-1,5-dihydro-4H-pyrazolo[4,3-c]pyridin-4-one], the inhibition at 1 µM came to 100% in assay [1], 100% in assay [2], 99% in assay [3] and 99% in assay [4].
Regarding `COCC(=O)N1CCN(c2cc(-c3cn([C@@H](C)C(C)C)c(=O)c4c(N)n[nH]c34)nn2C)CC1` [Example 17, 3-amino-7-(5-(4-(methoxyacetyl)piperazin-1-yl)-1-methyl-1H-pyrazol-3-yl)-5-((2S)-3-methylbutan-2-yl)-1,5-dihydro-4H-pyrazolo[4,3-c]pyridin-4-one], the inhibition at 1 µM was determined as 99% in assay [1], 100% in assay [2], 97% in assay [3] and 99% in assay [4].
With `CC(C)[C@H](C)n1cc(-c2cc(C(F)(F)F)n(C)n2)c2[nH]nc(N)c2c1=O` [Example 42, 3-amino-5-((2S)-3-methylbutan-2-yl)-7-(1-methyl-5-(trifluoromethyl)-1H-pyrazol-3-yl)-1,5-dihydro-4H-pyrazolo[4,3-c]pyridin-4-one], the inhibition at 1 µM in assay [1] stood at 99%; in assay [2] it was 98%; in assay [3], 96%; in assay [4], 96%.
`COC1(c2cc(-c3cn(-c4c(F)cccc4F)c(=O)c4c(N)n[nH]c34)nn2C)CN(C(C)=O)C1` [Example 131, 7-(5-(1-acetyl-3-methoxyazetidin-3-yl)-1-methyl-1H-pyrazol-3-yl)-3-amino-5-(2,6-difluorophenyl)-1,5-dihydro-4H-pyrazolo[4,3-c]pyridin-4-one]: the inhibition at 1 µM in assay [1] is 99%; in assay [2], 100%; in assay [3], 95%; in assay [4], 98%.
